Experimental findings from article PMC12645589, “mPEG@ELA-11 Alleviates Atherosclerosis via AKT-ER Stress-Mediated Macrophage Modulation” (BME Frontiers, 2025) are described below.

For data set [1], the system named is RAW264.7 macrophages. In words: Foam cell formation, Oil Red O staining. The format is cell-based, murine. To be noted: n = 3; for effect of co-treatment on the protective (foam cell inhibiting) effect of ELA-11: ox-LDL 50 μg/ml 48 h + ELA-11, modulator 1 μM, vs ox-LDL + ELA-11 group. As for the experimental part:
To assess the impact of ELA-11 on foam cell formation, RAW264.7 macrophages were pretreated with ELA-11 (1 μM) for 2 h before being exposed to ox-LDL (50 μg/ml) for 48 h.
(§1) For foam cell formation assays, cells were seeded in 6-well plates at 1 × 10^6 cells/well. Cells were pretreated with ELA-11 (1 μM) for 2 h before exposure to oxidized low-density lipoprotein (ox-LDL, 50 or 100 μg/ml) for 48 h. Where indicated, cells were cotreated with tunicamycin (1 μM, ER stress activator), ML221 (1 μM, APJ receptor antagonist), Recilisib (1 μM, AKT activator), or 4-PBA (1 μM, ER stress inhibitor).
Cells were fixed with 4% paraformaldehyde for 30 min, rinsed with 60% isopropanol, and stained with Oil Red O working solution for 10 min. After washing with distilled water, stained cells were imaged using a light microscope. For quantification, staining intensity was analyzed using ImageJ software.

Data set [2] relates to ApoE^-/- mice. Put plainly: Atherosclerosis in ApoE-/- mice fed a high-fat diet. The format is in vivo. Particulars: HFD. From the text:
To evaluate the therapeutic efficacy of ELA-11 in AS, ApoE^-/- mice fed a high-fat diet (HFD) were utilized as an established AS model. Male ApoE^-/- mice were randomly allocated into 3 groups (n = 6 per group): a control group fed a normal chow diet (NCD), an HFD group treated with phosphate-buffered saline (HFD + PBS), and a treatment group treated with ELA-11 (HFD + ELA-11). ApoE^-/- mice were initiated on HFD at 8 weeks of age. Four weeks later, at the beginning of the fifth week of HFD feeding, mice in the HFD + ELA-11 group received intraperitoneal injections of ELA-11 (1 mg/kg) every 3 days for a total of 19 injections. Mice were sacrificed at 20 weeks of age (Fig. 4A).
To evaluate the therapeutic potential of mPEG@ELA-11 NPs in vivo, a series of experiments were conducted using ApoE^-/- mice fed an HFD for 3 months to induce AS. The mice were randomly assigned to 4 groups (n = 6): a negative control group fed an NCD, an HFD group treated with PBS (HFD + PBS), an HFD group treated with free ELA-11 (HFD + ELA-11), and an HFD group treated with mPEG@ELA-11 NPs (HFD + mPEG@ELA-11). The administration route, frequency, and dosage were the same as described above.
Male ApoE^-/- mice (26 to 31 g, 8 weeks old) were obtained from GemPharmatech Co., Ltd. and housed under specific pathogen-free conditions. Mice were randomly allocated into 4 groups (n = 6/group): NCD, HFD + PBS, HFD + ELA-11, and HFD + mPEG@ELA-11. The HFD (Research Diets D12079B) consisted of 21% fat and 0.21% cholesterol. Drug treatments (1 mg/kg) were administered intraperitoneally every 3 days for 8 weeks, beginning at week 13. All animal procedures were approved by the institutional animal care committee.

Data set [3] deals with ApoE^-/- mice. Put plainly: Serum inflammatory markers and lipids in treated ApoE-/- mice. The format is in vivo.
Text: At the study endpoint, mice were euthanized under isoflurane anesthesia. Blood was collected for biochemical analysis, and the entire aorta was harvested from the ascending aorta to the iliac bifurcation. For en face analysis, aortas were stained with Oil Red O. The aortic root was sectioned for histological analysis, including Oil Red O, H&E, Masson’s trichrome, and immunofluorescence staining for CD31 and α-SMA.
Data set [4] in a line: pH-responsive in vitro release of ELA-11. The format is physicochemical. As for the experimental part: To assess the pH-responsive release behavior of mPEG@ELA-11, in vitro release studies were conducted. […] At 12 h post-injection, only 45% of Cy5-mPEG@ELA-11 was degraded, while 70% of Cy5-ELA-11 had already been degraded.
(§2) NP characterization was performed using FT-IR, NMR, DLS, and TEM. pH-responsive drug release was evaluated at pH values of 5.5, 6.5, and 7.4. For fluorescence imaging, NPs were labeled with ICG, Cy5 or Cy5.5.

Data set [5] can be described thus: Colloidal stability in physiological media over 5 days. Format: physicochemical. Particulars: mean ± SD. On the procedure:
The colloidal stability of mPEG@ELA-11 was evaluated in various physiological media over a 5-day period. The hydrodynamic diameter remained stable in PBS, serum, and 1640 culture medium, with only minor increases observed over time (Fig. 5E). On day 1, the sizes in PBS, serum, and 1640 medium were 36 ± 2.12, 43 ± 3.01, and 44 ± 4.53 nm, respectively. By day 5, these had increased slightly to 42 ± 3.36, 49 ± 3.49, and 50 ± 2.98 nm, respectively.

The nature of data set [6]: Nanoparticle size by DLS and TEM. The format is physicochemical. On the procedure:
The slight difference between DLS and TEM measurements is expected, as DLS measures the hydrodynamic diameter in solution, while TEM visualizes dehydrated NPs.
as §2

Data set [7] concerns ApoE^-/- mice. Put plainly: Biosafety evaluation in mice (histology, body weight, blood biochemistry). To be noted: for histopathological changes in major organs (heart, liver, spleen, lungs, and kidneys): 1 mg/kg every 3 days; for tissue morphology of heart, liver, spleen, lungs, and kidneys (H&E), long-term toxicity: 1 mg/kg via the tail vein, once every 3 days for 2 consecutive months, n = 6; for changes in body weight: throughout the treatment period, n=6, p>0.05.
Experimental: To evaluate the safety and biocompatibility of the treatments, histological analysis was performed on major organs (heart, liver, spleen, lungs, and kidneys) from all groups.
At the study endpoint, mice were euthanized under isoflurane anesthesia. Blood was collected for biochemical analysis, and the entire aorta was harvested from the ascending aorta to the iliac bifurcation.
Histological examination of the heart, liver, spleen, lungs, and kidneys in different treatments groups which were respectively injected with the same dose (1 mg/kg) of PBS, ELA-11, and mPEG@ELA-11 via the tail vein, once every 3 days for 2 consecutive months. […] Representative images were chosen from n = 6 mice per group.

In data set [8] the test system is RAW264.7 macrophages. Put plainly: CCK-8 cell viability assay. The format is cell-based, murine. On the procedure:
Finally, the cytotoxicity of mPEG@ELA-11 was assessed using the CCK-8 assay. […] The absence of cytotoxicity is a critical factor for the potential clinical application of mPEG@ELA-11.
Cell viability was assessed using the CCK-8 kit (Biosharp, China) according to the manufacturer’s instructions. Cells were seeded in 96-well plates at 1 × 10^5 cells/ml and treated with various compounds for 24 to 72 h before analysis.

Data set [9] deals with ER stress-associated proteins (p-PERK, p-eIF2α, CHOP, and ATF4). In words: Western blot of ER stress markers. To be noted: ox-LDL + ELA-11 + modulator (1 μM), n = 3. The format is cell-based, murine. As for the experimental part: as §1
(§3) Cells were lysed in RIPA buffer supplemented with protease and phosphatase inhibitors. Equal protein amounts were separated by 10% sodium dodecyl sulfate–polyacrylamide gel electrophoresis, followed by transfer to polyvinylidene fluoride membranes. Membranes were blocked with 5% milk and incubated overnight at 4 °C with primary antibodies against p-PERK, PERK, p-eIF2α, eIF2α, ATF4, CHOP, p-AKT, AKT, and GAPDH, followed by horseradish peroxidase-conjugated secondary antibodies. Protein bands were visualized using enhanced chemiluminescence reagents.
On the technique in general: Immunoblotting shows a protein as a band on a membrane.

The next data set has as its system AKT phosphorylation. Put plainly: Western blot of AKT phosphorylation. The format is cell-based, murine. Particulars: ox-LDL + ELA-11 + modulator (1 μM), n = 3. As for the experimental part:
as §1, §3

[10] abbreviates: n = 6, P < 0.05, the words describe the HFD group, i.e. treated groups lower.

Like-named read-outs stand apart in the source and are kept apart here.

Regarding `O=C(O)CCCc1ccccc1` [4-PBA, 4-phenylbutyric acid], the “foam cell formation (Oil Red O), rescue experiment” value in the data set with RAW264.7 macrophages [1] (ox-LDL 50 μg/ml 48 h, cotreatment, P < 0.0001 vs ox-LDL group) is on record as “comparable”.

“methoxy polyethylene glycol@Elabela-11 [mPEG@ELA-11]”: the “necrotic core size in aortic root sections, compared to free ELA-11” value in the data set on ApoE^-/- mice [2] (1 mg/kg i.p. every 3 days, H&E, n = 6, P < 0.05) is given as “more substantial decrease”. In the data set on ApoE^-/- mice [2] (1 mg/kg i.p. every 3 days, Oil Red O, n = 6, P < 0.001), the “overall plaque area in aortic root sections, compared to free ELA-11” value was “more substantial decrease”. Further, the “collagen content within the plaques (Masson's trichrome, aortic root)” value in the data set with ApoE^-/- mice [2] (1 mg/kg i.p. every 3 days, n = 6, P < 0.0001, no significant difference between the 2 treatment groups) was “increased collagen content”. Besides, in the data set with ApoE^-/- mice [2] (1 mg/kg i.p. every 3 days, n = 6, P < 0.001), the “atherosclerotic plaque area of the entire aorta (Oil Red O), compared to free ELA-11” value was “greater reduction”. The “integrity of the vascular endothelium (CD31 immunofluorescence)” value in the data set on ApoE^-/- mice [2] (n = 6, P < 0.001, P < 0.0001) is on record as “more effective than free ELA-11”. Moreover, the “smooth muscle cell proliferation in the plaque area (α-SMA immunofluorescence)” value in the data set with ApoE^-/- mice [2] (vs ELA-11 and HFD + PBS group, n = 6, P < 0.05, P < 0.01) was “significantly inhibited smooth muscle cell proliferation”. In the data set with ApoE^-/- mice [3] (HFD, among the groups, n = 6), the “IL-1β levels in blood serum” value was “no significant differences”. Further, the “IL-6 in blood serum compared to the HFD group” value in the data set on ApoE^-/- mice [3] (HFD, n = 6, P < 0.05) is “significantly lower”. In addition, in the data set with ApoE^-/- mice [3] (HFD, n = 6, P < 0.05), the “TNF-α in blood serum compared to the HFD group” value is reported as “significantly lower”. In addition, in the data set on ApoE^-/- mice [3] (setting [10]), the “LDL-C: HFD group compared to the treatment group” value is recorded as “significantly higher”. Further, the “total cholesterol: HFD group compared to the treatment group” value with ApoE^-/- mice [3] (setting [10]) was “significantly higher”. Further, the “triglycerides: HFD group compared to the treatment group” value in the data set with ApoE^-/- mice [3] (setting [10]) is “significantly higher”. Moreover, the “release of ELA-11” value in data set [4] (pH 5.5, after 48 h) worked out at 91.2%; in [4] (pH 6.5, after 48 h) it was 74.1%; in data set [4] (pH 7.4, after 48 h) it was 38.7%. For the same compound, the “hydrodynamic diameter, colloidal stability” value in [5] (1640 culture medium, day 1) amounted to 44 ± 4.53 nm; in data set [5] (1640 culture medium, day 5) it was 50 ± 2.98 nm; in data set [5] (PBS, day 1) it was 36 ± 2.12 nm; in [5] (PBS, day 5), 42 ± 3.36 nm; in data set [5] (serum, day 1) it was 43 ± 3.01 nm; in data set [5] (serum, day 5) it was 49 ± 3.49 nm. For the same compound, in data set [6] (dehydrated NPs), the “size (TEM)” value is ~ 25 nm. The “hydrodynamic diameter (DLS)” value in [6] (in PBS) was ~ 35 nm. The “histopathological changes in major organs (heart, liver, spleen, lungs, and kidneys)” value in the data set on ApoE^-/- mice [7] is “No significant histopathological changes”. For the same compound, in the data set on ApoE^-/- mice [7], the “tissue morphology of heart, liver, spleen, lungs, and kidneys (H&E), long-term toxicity” value is given as “no appreciable changes in tissue morphology”. Further, the “changes in body weight” value with ApoE^-/- mice [7] is “No significant histopathological changes in any of the organs or abnormal changes in body weight were observed”.

In the case of `CSCC[C@H](NC(=O)[C@@H](N)CS)C(=O)N1CCC[C@H]1C(=O)N[C@@H](CC(C)C)C(=O)N[C@@H](Cc1cnc[nH]1)C(=O)N[C@@H](CO)C(=O)N[C@@H](CCCNC(=N)N)C(=O)N[C@H](C(=O)N1CCC[C@H]1C(=O)N[C@@H](Cc1ccccc1)C(=O)N1CCC[C@H]1C(=O)O)C(C)C` [ELA-11], the “cytotoxicity (cell viability assay)” value in the data set with RAW264.7 macrophages [8] is on record as “no significant cytotoxicity”. Also, in the data set with ApoE^-/- mice [7], the “histopathological changes in major organs (heart, liver, spleen, lungs, and kidneys)” value is listed as “No significant histopathological changes”; the “tissue morphology of heart, liver, spleen, lungs, and kidneys (H&E), long-term toxicity” value is recorded as “no appreciable changes in tissue morphology”; the “changes in body weight” value is reported as “No significant histopathological changes in any of the organs or abnormal changes in body weight were observed”.

In the case of `O=C(O)c1ccc(/C=C/S(=O)(=O)Cc2ccc(Cl)cc2)cc1` [Recilisib], the “effect of co-treatment on the protective (foam cell inhibiting) effect of ELA-11” value (from here on “effect … (foam cell inhibiting) effect of ELA-11”) in the data set with RAW264.7 macrophages [1] was “reversed”. For the same compound, the “effect of co-treatment on the suppression of ER stress markers by ELA-11” value (“effect … of ER stress markers by ELA-11” for short) in [9] is listed as “lost its inhibitory effect”.

On to `O=C(Oc1coc(CSc2ncccn2)cc1=O)c1ccc([N+](=O)[O-])cc1` [ML221], for which, in the data set on AKT phosphorylation, the “effect of co-treatment on the inhibition of AKT signaling by ELA-11” value is “attenuated”. For the same compound, the “effect … (foam cell inhibiting) effect of ELA-11” value with RAW264.7 macrophages [1] is reported as “significantly attenuated”. The “effect … of ER stress markers by ELA-11” value in data set [9] was “partially reverse”. Further, the “cytotoxicity (cell viability assay)” value in the data set on RAW264.7 macrophages [8] was “no significant cytotoxicity”.

In the case of Tunicamycin, the “effect of co-treatment on the inhibition of AKT signaling by ELA-11” value in the data set with AKT phosphorylation was “maintained its inhibitory effect”. Besides, the “effect … (foam cell inhibiting) effect of ELA-11” value with RAW264.7 macrophages [1] is recorded as “significantly attenuated”. Also, the “effect … of ER stress markers by ELA-11” value in data set [9] was “diminished”. For the same compound, in the data set on RAW264.7 macrophages [8] (CCK-8, ox-LDL-induced Raw264.7 macrophages, concentrations employed in the study, 24 and 48 hours, n=4, p > 0.05 (Fig. S1)), the “cytotoxicity (cell viability assay)” value is “no significant cytotoxicity”.
